From paper PMC3776780, “Dual p38/JNK Mitogen Activated Protein Kinase Inhibitors Prevent Ozone-Induced Airway Hyperreactivity in Guinea Pigs” (PLoS ONE, 2013)

Tests used:
EphA = test: spectrophotometric coupled-enzyme kinase inhibition assay; type: biochemical; conditions: read-out: Ki or IC50 EphA
In short: (§1)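 Read-out is the fall in absorbance at 340 nm as NADH is consumed through pyruvate kinase/lactate dehydrogenase coupling, tracked 10 min at 30°C. Reactions hold 10–40 nM activated kinase, EGF receptor peptide substrate and ATP equal to its Km; values are IC50 or competitive-model Ki.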

FLT3 = FLT3 (Homo sapiens, UniProt P36888); test: as above; type: biochemical; conditions: read-out: Ki or IC50 FLT3
Sequence of FLT3 (P36888 27-993, species assumed): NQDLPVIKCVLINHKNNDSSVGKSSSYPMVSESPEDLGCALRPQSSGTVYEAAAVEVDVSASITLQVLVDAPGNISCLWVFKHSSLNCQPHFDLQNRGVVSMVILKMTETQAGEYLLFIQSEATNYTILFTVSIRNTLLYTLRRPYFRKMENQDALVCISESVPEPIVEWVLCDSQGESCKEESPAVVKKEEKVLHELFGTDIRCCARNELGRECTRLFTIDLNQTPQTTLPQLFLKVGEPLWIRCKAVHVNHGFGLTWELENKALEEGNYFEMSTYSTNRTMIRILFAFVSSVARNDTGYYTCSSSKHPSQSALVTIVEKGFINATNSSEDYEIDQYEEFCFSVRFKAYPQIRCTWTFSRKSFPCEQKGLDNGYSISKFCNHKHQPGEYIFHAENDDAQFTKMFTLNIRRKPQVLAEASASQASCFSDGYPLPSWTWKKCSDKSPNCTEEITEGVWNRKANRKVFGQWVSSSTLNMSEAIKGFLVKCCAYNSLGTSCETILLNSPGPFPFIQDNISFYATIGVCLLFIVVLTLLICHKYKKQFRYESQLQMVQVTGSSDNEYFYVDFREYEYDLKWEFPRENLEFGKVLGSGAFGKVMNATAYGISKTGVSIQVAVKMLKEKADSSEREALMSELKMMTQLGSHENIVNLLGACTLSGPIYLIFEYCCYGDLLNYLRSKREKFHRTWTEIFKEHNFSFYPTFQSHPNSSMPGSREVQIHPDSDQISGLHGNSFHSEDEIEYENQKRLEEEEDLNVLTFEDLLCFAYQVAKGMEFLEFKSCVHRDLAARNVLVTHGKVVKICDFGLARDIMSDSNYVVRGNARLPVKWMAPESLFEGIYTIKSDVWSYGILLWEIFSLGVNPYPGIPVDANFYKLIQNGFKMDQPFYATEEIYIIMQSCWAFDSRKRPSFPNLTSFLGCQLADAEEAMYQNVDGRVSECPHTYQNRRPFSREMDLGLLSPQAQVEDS
In short: as §1

ITK = ITK (Homo sapiens, UniProt Q08881); test: as above; type: biochemical; conditions: read-out: Ki or IC50 ITK
In short: as §1

JAK2 = JAK2 (Homo sapiens, UniProt O60674); test: as above; type: biochemical; conditions: read-out: Ki or IC50 JAK2
Sequence of JAK2 (O60674 whole entry, species assumed): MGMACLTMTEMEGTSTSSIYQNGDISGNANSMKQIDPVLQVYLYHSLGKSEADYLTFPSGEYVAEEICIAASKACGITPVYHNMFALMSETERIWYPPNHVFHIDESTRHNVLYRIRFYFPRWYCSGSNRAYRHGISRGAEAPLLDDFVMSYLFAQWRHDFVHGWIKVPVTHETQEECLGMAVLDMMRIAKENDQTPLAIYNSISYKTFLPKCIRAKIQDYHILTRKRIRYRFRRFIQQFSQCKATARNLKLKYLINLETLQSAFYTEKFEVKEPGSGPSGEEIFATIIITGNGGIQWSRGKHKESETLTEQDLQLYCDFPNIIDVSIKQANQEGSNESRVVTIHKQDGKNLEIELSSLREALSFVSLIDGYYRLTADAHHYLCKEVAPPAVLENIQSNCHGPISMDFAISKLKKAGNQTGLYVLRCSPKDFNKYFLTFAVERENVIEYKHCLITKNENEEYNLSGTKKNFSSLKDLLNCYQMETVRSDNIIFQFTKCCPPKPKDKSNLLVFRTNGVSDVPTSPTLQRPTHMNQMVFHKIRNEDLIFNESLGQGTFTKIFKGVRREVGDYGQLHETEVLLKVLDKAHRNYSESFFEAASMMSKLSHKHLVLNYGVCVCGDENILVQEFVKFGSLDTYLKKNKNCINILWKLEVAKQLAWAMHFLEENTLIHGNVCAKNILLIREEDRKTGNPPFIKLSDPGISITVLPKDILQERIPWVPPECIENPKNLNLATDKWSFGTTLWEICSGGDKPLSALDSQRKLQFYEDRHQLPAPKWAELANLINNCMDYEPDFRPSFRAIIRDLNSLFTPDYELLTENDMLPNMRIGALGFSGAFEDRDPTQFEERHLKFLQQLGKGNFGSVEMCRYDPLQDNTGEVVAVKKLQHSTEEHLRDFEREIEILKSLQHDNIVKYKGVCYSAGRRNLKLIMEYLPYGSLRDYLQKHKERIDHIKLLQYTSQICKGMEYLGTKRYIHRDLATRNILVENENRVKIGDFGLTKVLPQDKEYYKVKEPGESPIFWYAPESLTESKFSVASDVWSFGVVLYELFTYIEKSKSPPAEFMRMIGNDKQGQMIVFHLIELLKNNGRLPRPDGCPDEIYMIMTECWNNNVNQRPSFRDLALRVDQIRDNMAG
In short: as §1

TIE2 = TIE2 (Homo sapiens, UniProt Q02763); test: as above; type: biochemical; conditions: read-out: Ki or IC50 TIE2
Sequence of TIE2 (Q02763 23-1124, species assumed): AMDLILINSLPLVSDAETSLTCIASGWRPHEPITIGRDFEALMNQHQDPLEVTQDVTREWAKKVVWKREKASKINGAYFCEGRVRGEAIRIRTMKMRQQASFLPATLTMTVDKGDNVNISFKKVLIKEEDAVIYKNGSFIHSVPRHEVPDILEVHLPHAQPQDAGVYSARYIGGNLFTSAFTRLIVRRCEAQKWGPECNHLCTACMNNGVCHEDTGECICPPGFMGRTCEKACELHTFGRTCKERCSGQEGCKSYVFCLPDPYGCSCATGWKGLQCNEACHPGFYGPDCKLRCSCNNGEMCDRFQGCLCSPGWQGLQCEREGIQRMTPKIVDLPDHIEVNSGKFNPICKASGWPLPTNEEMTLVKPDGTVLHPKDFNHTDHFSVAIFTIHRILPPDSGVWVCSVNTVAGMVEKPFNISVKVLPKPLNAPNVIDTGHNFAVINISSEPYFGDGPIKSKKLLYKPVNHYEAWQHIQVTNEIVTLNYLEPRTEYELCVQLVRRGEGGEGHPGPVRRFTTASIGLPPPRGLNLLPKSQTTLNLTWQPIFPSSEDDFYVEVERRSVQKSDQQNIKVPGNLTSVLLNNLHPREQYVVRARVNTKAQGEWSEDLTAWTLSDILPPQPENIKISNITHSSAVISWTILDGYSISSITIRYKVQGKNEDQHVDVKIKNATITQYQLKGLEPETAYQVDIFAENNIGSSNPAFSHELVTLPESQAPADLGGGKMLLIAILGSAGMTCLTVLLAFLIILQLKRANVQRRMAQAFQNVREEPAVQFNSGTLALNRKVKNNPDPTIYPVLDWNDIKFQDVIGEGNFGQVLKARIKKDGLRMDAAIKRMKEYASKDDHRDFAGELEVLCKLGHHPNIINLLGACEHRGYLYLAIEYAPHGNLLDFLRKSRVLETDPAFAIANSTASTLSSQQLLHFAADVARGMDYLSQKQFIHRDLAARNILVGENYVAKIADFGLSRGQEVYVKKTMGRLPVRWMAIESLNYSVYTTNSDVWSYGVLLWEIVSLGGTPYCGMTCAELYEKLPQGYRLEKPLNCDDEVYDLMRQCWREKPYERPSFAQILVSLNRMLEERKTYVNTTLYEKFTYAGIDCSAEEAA
In short: as §1

[1] = tested on: ozone-induced airway hyperreactivity mediated by the vagus nerves; test: vagally induced bronchoconstriction (airway hyperreactivity); type: in vivo, guinea pigs; conditions: ozone-exposed, 30 mg/kg ip 1 h before ozone, one day post-exposure, vagal stimulation 1–25 Hz
Description: (§2) Guinea pigs were exposed to 2 ppm ozone or filtered air for 4 hours as described previously. Physiological measurements, airway inflammation, and histological measurements were made one day after a single ozone exposure.
(§3) Animals were given 30 mg/kg intraperitoneally of the dual p38 and JNK MAPK inhibitors V-05-013, V-05-014, or V-05-015 (Vertex Pharmaceuticals, Cambridge, MA) one hour before ozone exposure (Figure 1). These compounds were chosen because of their overall kinase selectivity profile. […] Inhibitors were dissolved in 25% DMSO in phosphate buffered saline (PBS). Air exposed control animals were given 25% DMSO in PBS one hour before ozone exposure.
Physiological measurements were made as previously described. The jugular veins were cannulated for intravenous administration of drugs and the right carotid artery was cannulated to measure heart rate and blood pressure. Both vagus nerves were cut and distal ends placed on platinum electrodes submerged in liquid paraffin. Animals were tracheostomized, ventilated (1 ml/100 g body weight, 100 breaths per minute) and paralyzed with a constant infusion of succinylcholine (10 µg/kg/min iv, Sigma-Aldrich). Pulmonary inflation pressure was measured at the trachea and bronchoconstriction was measured as the increase in pressure over basal inflation pressure produced by the ventilator.
Electrical stimulation of both vagus nerves (10V, 0.2 ms pulse width, 1–25 Hz, 5 sec duration at 1 minute intervals) produced frequency dependent bronchoconstriction and bradycardia due to release of acetylcholine onto muscarinic receptors.

[2] = tested on: M3 muscarinic receptor function on airway smooth muscle; test: smooth muscle M3 muscarinic receptor function (bronchoconstriction to intravenous acetylcholine); type: in vivo, guinea pigs; conditions: acetylcholine 1–10 µg/kg iv; for effect on ozone-induced potentiation of bronchoconstriction to intravenous acetylcholine: ozone-exposed, 30 mg/kg ip 1 h before ozone
Description: as §2, §3
Recovery from vagal stimulation was confirmed by pulmonary inflation pressure and heart rate returning to baseline before measuring smooth muscle M3 muscarinic receptor function (5–10 minutes after cessation of vagal stimulation). In vagotomized guinea pigs, M3 muscarinic receptor function on airway smooth muscle was tested by measuring bronchoconstriction after administration of acetylcholine (1–10 µg/kg iv, Sigma-Aldrich).

COT = COT (Homo sapiens, UniProt P41279); test: spectrophotometric coupled-enzyme kinase inhibition assay; type: biochemical; conditions: read-out: Ki or IC50 COT
Sequence of COT (P41279 whole entry): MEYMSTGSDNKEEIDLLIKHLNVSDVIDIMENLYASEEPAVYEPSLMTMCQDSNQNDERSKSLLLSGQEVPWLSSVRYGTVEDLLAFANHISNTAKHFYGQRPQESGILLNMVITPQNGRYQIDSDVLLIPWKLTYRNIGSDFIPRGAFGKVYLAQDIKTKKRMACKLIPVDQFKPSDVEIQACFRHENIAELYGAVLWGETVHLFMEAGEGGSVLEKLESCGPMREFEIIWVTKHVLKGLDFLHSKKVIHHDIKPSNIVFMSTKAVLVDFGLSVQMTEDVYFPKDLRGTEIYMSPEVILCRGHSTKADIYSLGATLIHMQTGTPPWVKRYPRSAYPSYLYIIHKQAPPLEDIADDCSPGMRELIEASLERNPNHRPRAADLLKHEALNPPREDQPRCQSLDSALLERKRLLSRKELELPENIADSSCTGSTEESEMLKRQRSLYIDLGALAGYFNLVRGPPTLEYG
In short: as §1

FAK = FAK (Homo sapiens, UniProt Q05397); test: as above; type: biochemical; conditions: read-out: Ki or IC50 FAK
In short: as §1

LCK = LCK (Homo sapiens, UniProt P06239); test: as above; type: biochemical; conditions: read-out: Ki or IC50 LCK
Sequence of LCK (P06239 whole entry, species assumed): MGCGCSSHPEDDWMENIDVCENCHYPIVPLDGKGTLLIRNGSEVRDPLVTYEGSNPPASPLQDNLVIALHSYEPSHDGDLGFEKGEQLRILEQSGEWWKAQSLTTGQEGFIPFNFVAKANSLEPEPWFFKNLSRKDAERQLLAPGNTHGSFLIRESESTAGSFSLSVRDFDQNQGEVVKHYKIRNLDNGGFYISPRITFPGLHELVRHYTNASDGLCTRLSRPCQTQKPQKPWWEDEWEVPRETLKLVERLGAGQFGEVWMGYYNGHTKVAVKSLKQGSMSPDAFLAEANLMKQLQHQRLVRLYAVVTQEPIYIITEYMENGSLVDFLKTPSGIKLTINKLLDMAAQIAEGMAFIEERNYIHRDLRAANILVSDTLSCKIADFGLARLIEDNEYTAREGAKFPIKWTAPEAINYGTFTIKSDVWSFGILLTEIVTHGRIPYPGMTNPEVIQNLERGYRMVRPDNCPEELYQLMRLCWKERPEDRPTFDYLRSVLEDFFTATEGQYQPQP
In short: as §1

PDK1 = PDK1 (Homo sapiens, UniProt O15530); test: as above; type: biochemical; conditions: read-out: Ki or IC50 PDK1
Sequence of PDK1 (O15530 whole entry): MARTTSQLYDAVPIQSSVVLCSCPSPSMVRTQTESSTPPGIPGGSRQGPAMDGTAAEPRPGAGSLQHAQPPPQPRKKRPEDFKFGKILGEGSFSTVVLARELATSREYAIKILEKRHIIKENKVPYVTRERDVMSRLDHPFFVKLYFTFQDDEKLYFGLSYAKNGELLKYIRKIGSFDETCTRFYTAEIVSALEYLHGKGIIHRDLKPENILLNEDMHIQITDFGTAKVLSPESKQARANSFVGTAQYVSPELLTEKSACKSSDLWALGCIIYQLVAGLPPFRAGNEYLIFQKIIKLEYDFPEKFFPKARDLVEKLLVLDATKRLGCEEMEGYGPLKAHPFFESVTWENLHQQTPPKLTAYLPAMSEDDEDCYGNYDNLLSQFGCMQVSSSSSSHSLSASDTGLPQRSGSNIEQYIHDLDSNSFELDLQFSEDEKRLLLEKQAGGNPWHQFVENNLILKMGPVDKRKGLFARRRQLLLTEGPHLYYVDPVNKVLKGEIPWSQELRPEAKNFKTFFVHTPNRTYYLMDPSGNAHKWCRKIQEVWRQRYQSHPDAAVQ
In short: as §1

Ki (EphA) [nM] | Ki (FLT3) [nM] | Ki (ITK) [nM] | Ki (JAK2) [nM] | Ki (TIE2) [nM] | Ki (COT) [nM] | Ki (FAK) [nM] | Ki (LCK) [nM] | Ki (PDK1) [nM] | SMILES | effect on ozone-induced potentiation of vagally induced bronchoconstriction [1] | effect on ozone-induced potentiation of bronchoconstriction to intravenous acetylcholine [2] | bronchoconstriction in response to intravenous acetylcholine ([2]; air-exposed, 30 mg/kg ip)
> 1000 | > 1000 | > 1000 | > 1000 | > 1000 | – | – | – | – | OC1CCN(Cc2onc(-c3ccc(F)cc3)c2-c2ccnc(NC3CCCCC3)n2)CC1 [V-05-013] | completely prevented ozone-induced airway hyperreactivity | not blocked | –
> 1000 | – | – | – | > 1000 | > 1000 | > 1000 | > 1000 | > 1000 | OC[C@@H]1CCCN1Cc1onc(-c2ccc(F)cc2)c1-c1ccnc(NC2CCCCC2)n1 [V-05-014] | completely prevented ozone-induced airway hyperreactivity | not blocked | –
– | > 1000 | – | > 1000 | – | – | – | > 1000 | > 1000 | Fc1ccc(-c2noc(CN3CCCCC3)c2-c2ccnc(NC3CCCCC3)n2)cc1 [V-05-015] | completely prevented ozone-induced airway hyperreactivity | attenuated ozone-induced smooth muscle hyperreactivity | hyperreactive to intravenous acetylcholine
